ChEMBL document CHEMBL5385848, “Discovery of novel hydroxyamidine based indoleamine 2,3-dioxygenase 1 (IDO1) and thioredoxin reductase 1 (TrxR1) dual inhibitors” (Eur J Med Chem, 2023)
Activity calls are given as the source filed them. No cut-off for these calls is given here.

What was measured:
[1] = Toxicity in athymic BALB/c mouse xenografted with human HCT-116 cells assessed as effect on body weight at 15 to 60 mg/kg, ig administered daily for 28 days and measured every 4 days; type: organism-based; conditions: in vivo, po, 672 h, dose 15-60 mg/kg, time 28 day
HCT-116 [2] = experiment: Induction of apoptosis in human HCT-116 cells assessed as apoptotic rate at 5 uM incubated for 24 hrs by Annexin-V/PI staining based flow cytometry analysis; type: functional
CT26 [3] = experiment: Antitumor activity against mouse CT26 cells implanted in athymic nude BALB/c mouse assessed as increase in CTL proliferation by measuring Ki67 expression at 15 to 60 mg/kg, ig administered daily for 28 days and measured every 4 days by flow cytometry analysis; type: functional, organism-based; conditions: dose 15-60 mg/kg, time 28.0 day
HeLa [4] = experiment: Induction of cell cycle arrest in human HeLa cells assessed as G1/S phase arrest at 2.5 to 10 uM pretreated with NAC for 2 hrs followed by compound addition and measured after 12 hrs by PI staining based flow cytometry analysis; type: functional; conditions: dose 2.5-10 µM
[5] = Toxicity in athymic BALB/c mouse xenografted with human HCT-116 cells assessed as change in spleen morphology at 15 to 60 mg/kg, ig administered daily for 28 days and measured every 4 days; type: organism-based; conditions: in vivo, po, 672 h, dose 15-60 mg/kg, time 28 day
HCT-116 [6] = experiment: Induction of apoptosis in human HCT-116 cells assessed as apoptotic rate at 10 uM incubated for 24 hrs by Annexin-V/PI staining based flow cytometry analysis; type: functional
[7] = biological target: T1, Thioredoxin reductase 1, cytoplasmic (Mus musculus, UniProt Q9JMH6); experiment: Inhibition of TrxR1 in mouse CT26 cells incubated for 24 hrs; type: cell-based
T1 sequence (Q9JMH6 whole entry): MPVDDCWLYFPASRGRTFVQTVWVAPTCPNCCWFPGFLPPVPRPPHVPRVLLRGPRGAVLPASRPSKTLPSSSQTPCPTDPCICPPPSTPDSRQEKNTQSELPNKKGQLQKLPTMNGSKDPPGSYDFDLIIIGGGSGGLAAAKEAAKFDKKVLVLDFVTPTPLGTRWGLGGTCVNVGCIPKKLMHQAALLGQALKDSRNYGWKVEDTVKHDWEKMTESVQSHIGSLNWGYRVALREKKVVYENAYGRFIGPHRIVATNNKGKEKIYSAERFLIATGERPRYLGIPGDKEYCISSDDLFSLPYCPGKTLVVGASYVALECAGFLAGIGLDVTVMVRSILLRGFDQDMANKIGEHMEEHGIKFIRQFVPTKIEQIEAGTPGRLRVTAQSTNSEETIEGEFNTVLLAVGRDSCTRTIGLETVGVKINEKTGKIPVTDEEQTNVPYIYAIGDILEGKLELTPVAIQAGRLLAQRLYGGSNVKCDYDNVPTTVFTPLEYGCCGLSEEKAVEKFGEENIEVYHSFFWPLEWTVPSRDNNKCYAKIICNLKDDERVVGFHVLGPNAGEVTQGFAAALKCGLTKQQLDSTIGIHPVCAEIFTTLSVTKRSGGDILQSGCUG

HCT-116 [8] = experiment: Cytotoxicity against human HCT-116 cells incubated for 24 hrs CCK-8 assay; type: functional, cell-based; conditions: HCT-116, 24 h
IDO1 = experiment: Selectivity ratio of IC50 for cytotoxicity against human HCT-116 cells to EC50 for inhibition of IDO1 in human HCT-116 cells; type: cell-based; conditions: read-out: Ratio IC50/EC50
[9] = biological target: Indoleamine 2,3-dioxygenase 1 (Homo sapiens, UniProt P14902); experiment: Inhibition of IDO1 in human HCT-116 cells using L-Tryptophan as substrate incubated for 24 hrs by microplate reader analysis; type: cell-based
CT26 [10] = experiment: Antitumor activity against ig dosed mouse CT26 cells implanted in […] BALB/c mouse assessed as reduction in tumor weight administered daily for 28 days and measured every 4 days; type: functional, organism-based; conditions: dose 15-60 mg/kg, time 28.0 day
[11] = Toxicity in athymic BALB/c mouse xenografted with human HCT-116 cells assessed as change in heart morphology at 15 to 60 mg/kg, ig administered daily for 28 days and measured every 4 days; type: organism-based; conditions: in vivo, po, 672 h, dose 15-60 mg/kg, time 28 day
HeLa [12] = experiment: Cytotoxicity against TrxR1 knockdown human HeLa cells incubated for 24 hrs by CCK-8 assay (reference value: 13.79 +/- 2 uM); type: functional, cell-based
[13] = biological target: Tryptophan 2,3-dioxygenase (Homo sapiens, UniProt P48775); experiment: Inhibition of TDO (unknown origin) using L-Trp as substrate incubated for 75 mins
HCT-116 [14] = experiment: Induction of apoptosis in human HCT-116 cells assessed as caspase-3 activation incubated for 24 hrs; type: functional, cell-based; conditions: dose 2.5-10 µM
[15] = biological target: Indoleamine 2,3-dioxygenase 1 (Mus musculus) (UniProt P28776); experiment: In vivo inhibition of IDO1 in BALB/c mouse implanted with mouse CT-26 cells assessed as reduction in tumor Kyn/Trp ratio at 60 mg/kg, po administered once daily by LC-MS/MS analysis; type: functional, organism-based
HeLa [16] = experiment: Cytotoxicity against human HeLa cells transfected with TrxR1 siRNA incubated for 24 hrs by CCK-8 assay (reference value: 9.74 +/- 1.64 uM); type: functional, cell-based
HCT-116 [17] = experiment: Cytotoxicity against human HCT-116 cells transfected with TrxR1 siRNA incubated for 24 hrs by CCK-8 assay (reference value: 3.49 +/- 0.28 uM); type: functional, cell-based; conditions: HCT-116, 24 h
[18] = biological target: T2, Thioredoxin reductase 1, cytoplasmic (Homo sapiens, UniProt Q16881); experiment: Inhibition of TrxR1 in human HCT-116 cells incubated for 24 hrs; type: cell-based
T2 sequence (Q16881 whole entry): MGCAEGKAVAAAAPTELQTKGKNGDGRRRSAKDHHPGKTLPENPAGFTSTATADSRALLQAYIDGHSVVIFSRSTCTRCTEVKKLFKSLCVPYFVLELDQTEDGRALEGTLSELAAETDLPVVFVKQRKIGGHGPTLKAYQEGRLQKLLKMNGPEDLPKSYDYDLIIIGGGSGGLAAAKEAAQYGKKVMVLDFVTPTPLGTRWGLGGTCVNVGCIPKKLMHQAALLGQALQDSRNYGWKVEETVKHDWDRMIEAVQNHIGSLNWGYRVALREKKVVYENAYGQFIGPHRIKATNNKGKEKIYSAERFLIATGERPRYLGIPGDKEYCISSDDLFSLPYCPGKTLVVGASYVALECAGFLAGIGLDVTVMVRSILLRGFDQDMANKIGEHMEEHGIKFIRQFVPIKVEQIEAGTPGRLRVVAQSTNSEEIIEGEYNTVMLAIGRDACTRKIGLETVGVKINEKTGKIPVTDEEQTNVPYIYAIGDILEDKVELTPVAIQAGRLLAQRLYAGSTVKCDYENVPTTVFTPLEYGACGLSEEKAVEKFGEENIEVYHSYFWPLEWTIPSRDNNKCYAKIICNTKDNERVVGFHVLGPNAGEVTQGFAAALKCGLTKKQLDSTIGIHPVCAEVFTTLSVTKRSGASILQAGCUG

[19] = biological target: Indoleamine 2,3-dioxygenase 1 (Mus musculus) (UniProt P28776); experiment: In vivo inhibition of IDO1 in BALB/c mouse implanted with mouse CT-26 cells assessed as increase in plasma Trp level at 60 mg/kg, po administered once daily by LC-MS/MS analysis; type: functional, organism-based
CT26 [20] = experiment: Antitumor activity against mouse CT26 cells implanted in […] BALB/c mouse assessed as increase in CD8 T lymphocytes at 15 to 60 mg/kg, ig administered daily for 28 days and measured every 4 days; type: functional, organism-based; conditions: dose 15-60 mg/kg, time 28.0 day

Chain of Indoleamine 2,3-dioxygenase 1 (Mus musculus) (P28776 whole entry, looked up): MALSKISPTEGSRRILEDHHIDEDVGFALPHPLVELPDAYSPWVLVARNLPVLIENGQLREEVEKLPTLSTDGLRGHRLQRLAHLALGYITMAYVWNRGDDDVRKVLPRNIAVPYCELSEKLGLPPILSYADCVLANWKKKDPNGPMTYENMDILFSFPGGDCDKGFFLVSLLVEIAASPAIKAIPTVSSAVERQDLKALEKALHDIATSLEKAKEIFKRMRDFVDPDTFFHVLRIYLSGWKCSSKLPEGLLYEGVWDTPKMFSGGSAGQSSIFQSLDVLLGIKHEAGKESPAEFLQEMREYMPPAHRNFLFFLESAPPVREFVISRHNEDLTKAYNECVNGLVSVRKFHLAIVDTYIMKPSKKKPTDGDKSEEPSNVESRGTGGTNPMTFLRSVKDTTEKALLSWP
Chain of Indoleamine 2,3-dioxygenase 1 (P14902 whole entry): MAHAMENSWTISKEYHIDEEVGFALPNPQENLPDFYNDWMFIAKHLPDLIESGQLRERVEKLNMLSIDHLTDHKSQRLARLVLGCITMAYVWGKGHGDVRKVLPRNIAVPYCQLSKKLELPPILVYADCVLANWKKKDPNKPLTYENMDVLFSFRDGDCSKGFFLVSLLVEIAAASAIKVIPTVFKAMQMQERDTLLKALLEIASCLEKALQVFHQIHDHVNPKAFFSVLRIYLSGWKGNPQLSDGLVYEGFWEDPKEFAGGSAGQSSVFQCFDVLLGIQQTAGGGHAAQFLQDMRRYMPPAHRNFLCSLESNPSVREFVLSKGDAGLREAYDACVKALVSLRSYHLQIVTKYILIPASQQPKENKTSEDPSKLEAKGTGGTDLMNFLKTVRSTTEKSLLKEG
Chain of Tryptophan 2,3-dioxygenase (P48775 whole entry): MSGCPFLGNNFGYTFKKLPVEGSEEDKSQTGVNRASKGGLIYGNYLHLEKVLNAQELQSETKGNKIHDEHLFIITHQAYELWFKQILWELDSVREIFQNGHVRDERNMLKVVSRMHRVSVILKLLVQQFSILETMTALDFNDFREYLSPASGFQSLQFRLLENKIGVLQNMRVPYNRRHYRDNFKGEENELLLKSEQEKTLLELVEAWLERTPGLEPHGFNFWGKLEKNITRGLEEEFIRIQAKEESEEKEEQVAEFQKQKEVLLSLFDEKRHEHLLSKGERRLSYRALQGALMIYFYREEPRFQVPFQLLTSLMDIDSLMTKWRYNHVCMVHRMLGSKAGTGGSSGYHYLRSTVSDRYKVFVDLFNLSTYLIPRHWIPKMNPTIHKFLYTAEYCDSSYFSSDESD

Which Activity [1] does the source give for O=C(Cc1ccc(O)cc1)Nc1nnc(CCCNc2nonc2/C(=N\O)Nc2ccc(F)c(Br)c2)s1 here?
The Activity was “Non-Toxic”.

And the Activity (HCT-116 [2])?
The Activity was 30.64%.

What about the Activity (CT26 [3]) of the same molecule?
Its Activity is “Active”.

What about the Activity (HeLa [4]) of the same molecule?
The Activity was “Active”.

And the Activity [5]?
Its Activity is “Non-Toxic”.

What about the Activity (HCT-116 [6]) of the same molecule?
The Activity was 60.55%.

What about the EC50 [7] of the same molecule?
The EC50 was 25.7 µM.

And the IC50 (HCT-116 [8])?
The IC50 was 3.33 µM.

And the selectivity ratio (IDO1)?
The selectivity ratio was 101.

And the EC50 [9]?
The EC50 was 34.1 µM.

What about the Activity (CT26 [10]) of the same molecule?
The Activity was “Dose-Dependent Effect”.

And the Activity [11]?
Its Activity is “Non-Toxic”.

What about the IC50 (HeLa [12]) of the same molecule?
Its IC50 is 7.2 µM.

And the IC50 [13]?
The IC50 was 54.2 µM.

And the Activity (HCT-116 [14])?
The Activity was “Dose-Dependent Effect”.

And the Activity [15]?
The Activity was “Active”.

What about the IC50 (HeLa [16]) of the same molecule?
The IC50 was 4.86 µM.

What about the IC50 (HCT-116 [17]) of the same molecule?
Its IC50 is 1.67 µM.

What about the EC50 [18] of the same molecule?
Its EC50 is 3.14 µM.

What about the Activity [19] of the same molecule?
The Activity was “Active”.

What about the Activity (CT26 [20]) of the same molecule?
Its Activity is “Active”.
